Measured values from US20120107323A1, “KINASE PROTEIN BINDING INHIBITORS” (University of Florida, priority 2009, published 2012).

Assays:
normal human melanocytes = test: Cell viability (MTT), melanocytes; assay type: cell-based; conditions: Melanocyte, Melonocyte, 72 hours, read-out: IC50 of INT2-31, cell viability
Procedure: (§1) Cell viability (MTT) and CFSE Proliferation assay: Cells were plated in 96-well plates and let adhere overnight. After cell treatment, cell viability was measured by 3-(4,5-dimethylthiazol-2-yl)-2,5-diphenyl tetrazolium bromide (MTT) assay (CellTiter 96® Aqueous, Promega, Madison, Wis.).
(§2) Cell viability and detachment assays: After cells were treated with siRNA transfection, cell viability was measured by 3-(4,5-dimethylthiazol2-yl)-2,5-diphenyl tetrazolium bromide (MTT) assay (CellTiter 96® AQueous, Promega, Madison, Wis.). Briefly, 20 μl of the tetrazolium compound was added to each well. The cells were then incubated at 37° C. for 1 h. The plate was read at 490 nm with a plate reader to determine the viability. In detachment assays, detached and attached cells were harvested separately and counted in a hemocytometer. The percentage of detachment was calculated by dividing the number of detached cells by the total number of cells. Apoptosis assays: After treatment, attached and detached cells were collected, counted and prepared for terminal uridine deoxynucleotidyl transferase (TUNEL) assay by utilizing an APO-BRDU kit (BD Pharmingen, San Diego, Calif.) according to the manufacturer's instructions. Stained cells were analyzed with a fluorescence-activated cell sorting-Calibur flow cytometer (BD Biosciences). […] Apoptotic cells were also analyzed by Hoechst staining. […]

SK-MEL-28 melanoma cells = test: Cell viability (MTT), SK-MEL-28; assay type: cell-based; conditions: Homo sapiens; SK-MEL-28, 72 hours; read-out: IC50 of INT2-31, cell viability
Procedure: as §1, §2

[1] = system: TE7 esophageal cancer cells; test: Cell viability (MTT), TE7; assay type: cell-based; conditions: TE7, 72 hours; read-out: IC50 of INT2-31, cell viability
Procedure: as §1, §2

[2] = system: KYSE140 esophageal cancer cells; test: Cell viability (MTT), KYSE140; assay type: cell-based
Procedure: as §1
Cell viability and detachment assays: After cells were treated with siRNA transfection, cell viability was measured by 3-(4,5-dimethylthiazol2-yl)-2,5-diphenyl tetrazolium bromide (MTT) assay (CellTiter 96® AQueous, Promega, Madison, Wis.). Briefly, 20 μl of the tetrazolium compound was added to each well. The cells were then incubated at 37° C. for 1 h. The plate was read at 490 nm with a plate reader to determine the viability. In detachment assays, detached and attached cells were harvested separately and counted in a hemocytometer. The percentage of detachment was calculated by dividing the number of detached cells by the total number of cells. Apoptosis assays: After treatment, attached and detached cells were collected, counted and prepared for terminal uridine deoxynucleotidyl transferase (TUNEL) assay by utilizing an APO-BRDU kit (BD Pharmingen, San Diego, Calif.) according to the manufacturer's instructions. Stained cells were analyzed with a fluorescence-activated cell sorting-Calibur flow cytometer (BD Biosciences). Calculation of the percentage of apoptotic cells in the sample was completed with CellQuest software (BD Biosciences). Apoptotic cells were also analyzed by Hoechst staining. Hoechst 33342 ([…]) was added to the fixed cells and the specimens were mounted on glass coverslips. The slides were viewed under the Zeiss microscope for apoptotic nuclei. The percent of apoptotic cells was calculated as the ratio of apoptotic cells to total number of cells.
In addition, the effect of INT2-31 on cell viability of esophageal, pancreatic and breast cancer cell lines was analyzed and the IC50 value for each cell line was determined, as shown in Table 1. […] Similar to melanoma results, INT2-31 inhibits viability more in cancer cells compared to normal cells. Sensitivity of the cells to INT2-31 varied and directly correlated to the FAK and IGF-1R expression level of the cells.

[3] = system: AsPC1 pancreatic cancer cells; test: Cell viability (MTT), AsPC1; assay type: cell-based; conditions: Homo sapiens; AsPC1, 72 hours; read-out: IC50 of INT2-31, cell viability
Procedure: as §1, §2

C8161 melanoma cells [4] = test: Apoptosis by Hoechst staining; assay type: cell-based, human; conditions: 5 μM, 72 h
Procedure: Detachment assay: Cells were plated with and without compound for 24, 48, and 72 h, and detached and attached cells were counted in a hemocytometer. The percent of detachment was calculated by dividing the number of detached cells by the total number of cells and experiments performed in triplicate. Apoptosis assays: After treatment, attached and detached cells were collected, counted and prepared for terminal uridine deoxynucleotidyl transferase (TUNEL) assay by utilizing an APO-BRDU kit (BD Pharmingen, San Diego, Calif.) and cells analyzed with a FACSCalibur cytometer (Becton Dickinson, San Jose, Calif.). In addition, apoptotic cells were analyzed with Hoechst 33342 staining (1 μg/ml). The percent of apoptotic cells was calculated as the ratio of apoptotic cells to total number of cells.
In addition, apoptotic cells were also analyzed by Hoechst staining. To the prepared cells as described above, Hoechst 33342 (1 μg/ml) was added, incubated in the dark room temperature for 10 minutes, and the specimens were mounted on glass coverslips. The slides were viewed under the Zeiss microscope for apoptotic nuclei. The percent of apoptotic cells was calculated as the ratio of apoptotic cells to total number of cells. Over 300 cells per sample were analyzed.

C8161 melanoma cells [5] = test: CFSE cell proliferation assay, C8161; assay type: cell-based, human; conditions: effect greater than in A375
Procedure: For staining with CFSE (Molecular Probes, Eugene, Oreg.)., 1×10^7/ml cells were suspended in PBS and incubated at 37° C. for 5 min with the 10 μM of CFSE. Stained cells were cultured with medium alone or with inhibitor for 24, 48, and 72 hours, fixed and analyzed by a FACS Calibur cytometer (Becton Dickinson, San Jose, Calif.).

CSc1ncnc2c1ccn2C1O[C@H](COP(=O)(O)O)[C@@H](O)[C@H]1O (stereo partly drawn) [INT2-31, 4-(Methylthio)-7-(5-O-phosphono-D-ribofuranosyl)-{7H-Pyrrolo[2,3-d]pyrimidine}]
IC50 (normal human melanocytes): 97.3 µM
IC50 (SK-MEL-28 melanoma cells): 22.1 µM
IC50 [1]: 3.2 µM
IC50 ([2]; Homo sapiens, KYSE-140, KYSE140, 72 hours, read-out: IC50 of INT2-31, cell viability): 2.5 µM
effect of combination with 5-FU on cell viability ([2]; KYSE 140, 0.5 and 1 μM INT2-31): synergistic effects
sensitivity of cells to single-agent treatment ([2]; KYSE 140, 72 hours): sensitive
IC50 [3]: 16.9 µM
induction of apoptosis, Hoescht positive cells (C8161 melanoma cells [4]): greater than 50%
cell proliferation (CSFE) (C8161 melanoma cells [5]): inhibited cell proliferation
